# Marks after values point to notes of the source that are not given here.
# Experiment: Nuclear magnetic relaxation dispersion (NMRD) profiles, Solomon-Bloembergen-Morgan fit
# Type: physicochemical
# Conditions: copper free
# Description: FIG. 9. ^1H Nuclear magnetic relaxation dispersion profiles of CG3 and CG3+Cu^+ acquired at 25° C. The solid lines represent the best fit profiles.
# As a secondary, independent set of experiments to further probe the mechanisms of copper ion sensing by the CG contrast agents, we also performed nuclear magnetic relaxation dispersion (NMRD) measurements of these sensors in the absence and in the presence of copper ions using a field cycling relaxometer (FIG. 9). The profiles obtained were analyzed following Solomon-Bloembergen-Morgan theory^36-38 for the inner-sphere relaxivity and the Freed model^115 for the outer-sphere relaxivity, fixing the diffusion coefficient (D) at […], the distance between Gd^3+ and the inner sphere water protons (r) at 3.1 Å, and the inner sphere exchange lifetime (τM) at 160 ns, the reported value for the parent complex Gd^3+-DO3A. Profiles were obtained for all compounds in the copper-free state. Profiles in the presence of Cu^n+ were obtained for CG2-4 (Cu^+) and CG6 (Cu^2+).
# In fact, the measured outer-sphere relaxivities were so low that, in order to obtain a reasonable fit, the distance of closest approach of outer-sphere water protons (a) was allowed to vary. The distances obtained for the CG complexes (4.2-4.8 Å) were markedly longer than what is observed for typical Gd^3+ contrast agents with greater water access (3.8-4 Å). These values correlate with the copper-free relaxivities of CG2-6; longer a values give lower relaxivities and shorter a values give higher relaxivities. For Cu^+-sensing agents CG2-4, the estimated change in q of 2 as determined by DIS measurements was also observed in the fitted NMRD data. In fact, any attempt to fit the observed NMRD profiles with q=1 led to very poor agreement between experimental and calculated values. The change in q of 1 for CG6 upon addition of Cu^2+ as determined by NMRD is consistent with the lower turn-on response observed with this complex compared to CG2-4. The reduced q modulation for CG6 relative to CG2-4 could indicate that the carboxylic acid moiety used for Cu^2+ binding also interacts with the Gd^3+ center in the Cu^2+-bound state. The fitted rotational correlation times (τR) for copper-bound CG complexes all fall within the range expected for Gd^3+ complexes with molecular weights of 700-800 D. τR values for copper-free CG2-6 were fixed to values close to their copper-bound analogues as fits of NMRD data for q=0 complexes are not sensitive to small changes in τR. The values of Δ^2 (average quadratic transient zero field splitting), τv (electronic correlation time), and τs0 (electronic relaxation time at zero field), which govern the electronic relaxation time, are relatively similar to each other. These NMRD values are closer to those of Gd^3+-DTPA than Gd^3+-DOTA, reflecting the asymmetry of CG2-6.^64
structure (smiles),measurement,setting,value
CCSCCN(CCSCC)Cc1cccc(CN2CCN(CC(=O)[O-])CCN(CC(=O)[O-])CCN(CC(=O)[O-])CC2)n1.[Gd+3] [CG2],τs0 (electronic relaxation time at zero field),,75.6 ps
same,r1p 20 MHz 25° C.,"0.5 mM, 20 mM HEPES pH 7",1.6 mM⁻¹ s⁻¹
same,a (distance of closest approach of outer-sphere water protons),best-fit value,4.7 ± 0.11 Å
same,Δ^2 (average quadratic transient zero field splitting),best-fit value,5.8 ± 1.1 10^19 s^−2
same,τv (electronic correlation time),best-fit value,19 ± 2.4 ps
same,q,fixed in the fitting procedure,0^c
same,τR (rotational correlation time),"not experimentally determined, assumed equal to corresponding q ≠ 0 complex (CG5: average of the other complexes)",110^d ps

# — patent US20110294992A1, “METAL RESPONSIVE MRI-AGENTS” (The Regents of the University of California, priority 2010, published 2011)
